Assay results from patent publication US6624120B1, “Substituted herbicidal phenyluracils” (priority 1999, dated 2003).

Key:
[1] = logP determination by HPLC (EEC Directive 79/831 Annex V.A8), reversed-phase column C 18; format: physicochemical
Description: The logP values given in Table 1 were determined in accordance with EEC Directive 79/831 Annex V.A8 by HPLC (High Performance Liquid Chromatography) using a reversed-phase column (C 18). Temperature: 43° C.
(a) Mobile phases for the determination in the acidic range: 0.1% aqeuous phosphoric acid, acetonitrile; linear gradient from 10% acetonitrile to 90% acetonitrile—the corresponding test results in Table 1 are labelled^a).
(b) Mobile phases for the determination in the neutral range: 0.01 molar aqueous phosphate buffer solution, acetonitrile; linear gradient from 10% acetonitrile to 90% acetonitrile—the corresponding test results in Table 1 are labelled^b).
Calibration was carried out using unbranched alkan-2-ones (having 3 to 16 carbon atoms) with known logP values (determination of the logP values by the retention times using linear interpolation between two successive alkanones).

[2] = reversed-phase HPLC column (C 18); a) acidic range: 0.1% aqueous phosphoric acid/acetonitrile gradient, 43° C.

Compound | chromatographic logP [1, 2] | melting point [°C] | further results
COc1ccc2cc(Oc3cc(-n4c(=O)cc(C(N)=O)n(C)c4=O)c(F)cc3C#N)ccc2c1 [Example 35, 1-[4-cyano-2-fluoro-5-(6-methoxy-naphthalen-2-yl-oxy)-phenyl]-2,6-dioxo-3-methyl-1,2,3,6-tetrahydro-pyrimidine4-carboxamide] | 2.06 | – | –
N#Cc1cc(F)c(-n2c(=O)cc(C(F)(F)F)[nH]c2=O)cc1Oc1ccc2ccccc2c1 | – | 92 | –
CCOC(=O)NC1=CC(=O)N(c2cc(Oc3ccc4cc(OC)ccc4c3)c(C#N)cc2F)C1=O [Example (VII-1), ethyl [1-(4-cyano-2-fluoro-5-(6-methoxy-naphthalen-2-yl-oxy)-phenyl)-2,5-dioxo-2,5-dihydro-1H-pyrrol-3-yl]-carbamate] | – | – | chromatographic logP ([1]; mobile-phase label not given): 3.63
CCOC(=O)[C@@H](C)Oc1ccc2cc(Oc3cc(-n4c(=O)cc(C(F)(F)F)n(C)c4=O)c(F)cc3C#N)ccc2c1 [Example 6, ethyl (R)-2-[6-(2-cyano-4-fluoro-5-[3-methyl-2,6-dioxo-4-trifluoromethyl-3,6-dihydro-1(2H)-pyrimidinyl]-phenoxy)-2-naphthyl-oxy]-propanoate] | – | – | chromatographic logP ([1]; reversed-phase HPLC column (C 18), at pH 2.3): 3.99
Cn1c(C(F)(F)F)cc(=O)n(-c2cc(Oc3ccc4cc(O)ccc4c3)c(C#N)cc2F)c1=O | – | 174 | –
COc1cccc2c(Oc3cc(-n4c(=O)cc(C(F)(F)F)n(C)c4=O)c(F)cc3C#N)cccc12 | – | 109 | –
CCOC(=O)C(C)Oc1ccc2ccc(Oc3cc(-n4c(=O)cc(C(F)(F)F)n(C)c4=O)c(F)cc3C#N)cc2c1 (racemic) | – | 133 | –
COc1ccc2cc(Oc3cc(-n4c(=O)cc(C(=O)O)[nH]c4=O)c(F)cc3C#N)ccc2c1 [Example 31, 1-[4-cyano-2-fluoro-5-(6-methoxy-naphthalen-2-yl-oxy)-phenyl]-2,6-dioxo-1,2,3,6-tetrahydro-pyrimidine-4-carboxylic acid] | 2.11 | – | –
COC(=O)c1cc(=O)n(-c2cc(Oc3ccc4cc(OC)ccc4c3)c(C#N)cc2F)c(=O)n1C [Example 33, methyl I-[4-cyano-2-fluoro-5-(6-methoxy-naphthalen-2-yl-oxy)-phenyl]-2,6-dioxo-3-methyl-1,2,3,6-tetrahydro-pyrimidine-4-carboxylate] | 3.22 | – | –
N#Cc1cc(F)c(-n2c(=O)cc(C(F)(F)F)[nH]c2=O)cc1Oc1cccc2c(O)cccc12 | – | 168 | –
